How the values were obtained:
[1] = tested on: HUVEC cells; experiment: HUVEC migration, wound-healing assay (JuLI Stage); type: cell-based, human
Experimental: The effects of compounds 1–5 on HUVEC migration were determined using the JuLI™ Stage system (NanoEntek, Seoul, Korea): a real-time cell history recorder allowing for live cell imaging and analysis. The procedure for the migration experiments has been published elsewhere in more detail. Concisely, HUVECs were seeded at a density of 10,000 cells per well on 96-well plates and incubated at standard conditions for 24 h. Following this, a wound was made with a scratcher (NanoEntek, Seoul, Korea). The cells were then rinsed with 100 μL of fresh EGM2 medium, and treated with biguanides 1–5 at the concentrations of 0.3 and 1.0 mM. The cells were incubated and monitored continuously every 10 min for 36 h at 37 °C, 5% CO2. Analysis of obtained images of cell migration, and measurements of the width of the scratch area were performed using dedicated software (NanoEntek, Seoul, Korea). The results were presented as mean ± SD, n = 4–8. The CV for the method was estimated as 14.2–24.4%, depending on the time point (n = 8).

[2] = tested on: clot formation and fibrinolysis in human citrate plasma; experiment: Clot formation and fibrinolysis test (CL-test); type: biochemical
Experimental: The effects of the […] on overall hemostasis potential by means of clot formation and fibrinolysis test (CL-test) were further tested based on the continuous measurement of the changes in optical transmittance over time, as described by Kostka et al. and Sikora et al.. These experiments were conducted using 470 µL of three-fold diluted human citrate plasma, 10 µL of the tested compounds, and 10 µL t-PA (final concentration in a sample 220 ng/mL). The clot formation was triggered by thrombin (10 µL, final concentration 0.5 IU/mL). The clot formation and lysis curves were determined at a wavelength of 405 nm with a spectrophotometer (Cecil CE 2021; London, UK) with circulating thermostated water (37 °C) and a Model 300 Electronic Stirrer (Rank Brothers Ltd., Cambridge, UK). The experiments were conducted in multiplicate (n = 5–7), and the results are presented as mean ± SD.
The received graphs were analyzed using dedicated software to determine the kinetic parameters of clot formation, stabilization, and fibrinolysis. The following parameters of clot formation were determined: Tt—thrombin time (s), Fmax—maximum clotting (%T), Tf—plasma clotting time (s), Fvo—initial plasma clotting velocity (%T/min), Sr—area under the clot formation curve (%Txmin). The parameters of the clot stabilization phase comprised Tc—clot stabilization time (s), Sc—area under the curve of stable clot formation (%Txmin). The parameters of fibrinolysis comprised Lmax—maximum lysis (%T), Tl—fibrinolysis time (s), Lvo—initial clot fibrinolysis velocity (%T/min), Sf—area under the fibrinolysis curve (%Txmin). Additionally, the overall potential of clot formation and fibrinolysis (CLAUC, (%Txmin)) and total time of the process of clot formation and fibrinolysis (T, (s)) were also estimated.

[3] = WST-1 cell viability assay, AoSMC; conditions: human, AoSMC cells
[4] = tested on: HUVEC cells; experiment: WST-1 cell viability assay, HUVEC
Experimental: HUVEC and AoSMC viability were tested using the WST-1 cell viability assay (Takara Bio Europe, Saint-Germain-en-Laye, France). […] Briefly, HUVEC and AoSMC were seeded at densities of 7500 and 5000 cells per well on 96-well plates. The cells were cultivated for up to 24 h to achieve 70% confluency, and subsequently treated with tested compounds diluted in medium (1 + 9; v = 100 μL) or pure medium (control). The plates were incubated at 37 °C (5% CO2) for the next 24 h. Then, the cells were rinsed with 100 μL culture medium, and WST-1 reagent diluted in medium (100 μL) was added; the plates were then incubated again (37 °C, 5% CO2) for another 90 min. The absorbance was measured at 450 nm (iMARK, Bio-Rad, Hercules, CA, USA). The experiments were performed in multiplicate (n = 8) and the results were presented as mean ± SD. The cell viability was expressed as a percentage of the control samples, which constituted 100% viability. […] The variability coefficient of the method was estimated (CV(HUVEC) = 8.94%, n = 8; CV(AoSMC) = 5.84%, n = 10).

CN(C)C(=N)N=C(N)NS(=O)(=O)C1CCCCC1 [Compound 3]
wound width ([1]; 0.3 mM, 6 hours): 606.7 ± 149.4 µm
wound width ([1]; 0.3 mM, 12 hours): 486.0 ± 131.2 µm
wound width ([1]; 0.3 mM, 18 hours): 441.9 ± 99.5 µm
wound width ([1]; 0.3 mM, 24 hours): 395.9 ± 104.7 µm
wound width ([1]; 0.3 mM, Start): 675.1 ± 94.6 µm
wound width ([1]; 1.0 mM, 6 hours): 494.6 ± 106.9 µm
wound width ([1]; 1.0 mM, 12 hours): 414.1 ± 103.5 µm
wound width ([1]; 1.0 mM, 18 hours): 385.2 ± 94.5 µm
wound width ([1]; 1.0 mM, 24 hours): 331.3 ± 62.5 µm
wound width ([1]; 1.0 mM, Start): 609.3 ± 73.0 µm
Fmax—maximum clotting ([2]; 0.06 mM): 65.40 ± 9.39 %T
Fvo—initial plasma clotting velocity ([2]; 0.06 mM): 208.17 ± 44.80 %T/min
Lmax—maximum lysis ([2]; 0.06 mM): 71.38 ± 8.36 %T
Lvo—initial clot fibrinolysis velocity ([2]; 0.06 mM): 20.38 ± 5.24 %T/min
Sc—area under the curve of a stable clot formation ([2]; 0.06 mM): 314.15 ± 49.14 %T x min
Sf—area under the clot formation curve ([2]; 0.06 mM): 48.52 ± 10.81 %T x min
Sl (area under the fibrinolysis curve) ([2]; 0.06 mM): 156.16 ± 30.07 %T x min
S—overall potential of clot formation and fibrinolysis (CLAUC) ([2]; 0.06 mM): 521.91 ± 66.81 %T x min
Tc—clot stabilization time ([2]; 0.06 mM): 279.50 ± 46.51 s
Tf—plasma clotting time ([2]; 0.06 mM): 57.45 ± 8.71 s
Tl—fibrinolysis time ([2]; 0.06 mM): 235.33 ± 48.33 s
Tt—thrombin time ([2]; 0.06 mM): 16.68 ± 3.26 s
T—total time of the process of clot formation and fibrinolysis ([2]; 0.06 mM): 588.97 ± 87.54 s
Fmax—maximum clotting ([2]; 0.3 mM): 68.78 ± 4.04 %T
Fvo—initial plasma clotting velocity ([2]; 0.3 mM): 214.17 ± 32.05 %T/min
Lmax—maximum lysis ([2]; 0.3 mM): 70.15 ± 3.87 %T
Lvo—initial clot fibrinolysis velocity ([2]; 0.3 mM): 22.88 ± 8.98 %T/min
Sc—area under the curve of a stable clot formation ([2]; 0.3 mM): 335.21 ± 50.51 %T x min
Sf—area under the clot formation curve ([2]; 0.3 mM): 44.41 ± 6.00 %T x min
Sl (area under the fibrinolysis curve) ([2]; 0.3 mM): 142.20 ± 37.46 %T x min
S—overall potential of clot formation and fibrinolysis (CLAUC) ([2]; 0.3 mM): 521.82 ± 88.83 %T x min
Tc—clot stabilization time ([2]; 0.3 mM): 299.50 ± 38.60 s
Tf—plasma clotting time ([2]; 0.3 mM): 55.13 ± 7.55 s
Tl—fibrinolysis time ([2]; 0.3 mM): 229.17 ± 48.85 s
Tt—thrombin time ([2]; 0.3 mM): 16.23 ± 4.22 s
T—total time of the process of clot formation and fibrinolysis ([2]; 0.3 mM): 600.03 ± 91.80 s
Fmax—maximum clotting ([2]; 0.6 mM): 66.60 ± 4.00 %T
Fvo—initial plasma clotting velocity ([2]; 0.6 mM): 211.50 ± 22.76 %T/min
Lmax—maximum lysis ([2]; 0.6 mM): 67.55 ± 4.50 %T
Lvo—initial clot fibrinolysis velocity ([2]; 0.6 mM): 23.53 ± 6.67 %T/min
Sc—area under the curve of a stable clot formation ([2]; 0.6 mM): 323.11 ± 42.53 %T x min
Sf—area under the clot formation curve ([2]; 0.6 mM): 42.40 ± 3.94 %T x min
Sl (area under the fibrinolysis curve) ([2]; 0.6 mM): 137.48 ± 23.47 %T x min
S—overall potential of clot formation and fibrinolysis (CLAUC) ([2]; 0.6 mM): 502.99 ± 64.69 %T x min
Tc—clot stabilization time ([2]; 0.6 mM): 299.50 ± 40.90 s
Tf—plasma clotting time ([2]; 0.6 mM): 54.73 ± 5.88 s
Tl—fibrinolysis time ([2]; 0.6 mM): 234.83 ± 42.86 s
Tt—thrombin time ([2]; 0.6 mM): 17.17 ± 3.17 s
T—total time of the process of clot formation and fibrinolysis ([2]; 0.6 mM): 606.23 ± 87.70 s
Fmax—maximum clotting ([2]; 1.5 mM): 63.60 ± 5.36 %T
Fvo—initial plasma clotting velocity ([2]; 1.5 mM): 199.50 ± 18.07 %T/min
Lmax—maximum lysis ([2]; 1.5 mM): 63.92 ± 5.38 %T
Lvo—initial clot fibrinolysis velocity ([2]; 1.5 mM): 23.50 ± 13.77 %T/min
Sc—area under the curve of a stable clot formation ([2]; 1.5 mM): 368.60 ± 84.14 %T x min
Sf—area under the clot formation curve ([2]; 1.5 mM): 47.68 ± 7.07 %T x min
Sl (area under the fibrinolysis curve) ([2]; 1.5 mM): 143.17 ± 38.79 %T x min
S—overall potential of clot formation and fibrinolysis (CLAUC) ([2]; 1.5 mM): 559.45 ± 127.25 %T x min
Tc—clot stabilization time ([2]; 1.5 mM): 355.50 ± 66.77 s
Tf—plasma clotting time ([2]; 1.5 mM): 62.35 ± 6.00 s
Tl—fibrinolysis time ([2]; 1.5 mM): 253.17 ± 62.51 s
Tt—thrombin time ([2]; 1.5 mM): 18.15 ± 4.30 s
T—total time of the process of clot formation and fibrinolysis ([2]; 1.5 mM): 689.17 ± 134.48 s
viability at 24 h, 3 mM [3]: > 76%
Decrease of HUVECs viability (growth inhibition) ([4]; 0.3 mM, vs control): ~24.15%
IC50 ([4]; Homo sapiens, HUVEC, 24 h, read-out: Viability-IC50, HUVEC cells): 3.51 ± 0.24 mM
